Source: article PMC7020312 (CPT: Pharmacometrics & Systems Pharmacology, 2020)
Like-named read-outs stand apart in the source and are kept apart here.

What was measured:
[1] = test system: CYP1A2; assay: Unbound intrinsic metabolic clearance assigned to CYP1A2; format: in vitro ADME; details: human, human liver microsomes and recombinant enzymes
[2] = test system: FMO3; assay: Unbound intrinsic metabolic clearance assigned to FMO3; format: in vitro ADME; details: human, human liver microsomes and recombinant enzymes
[3] = Unbound intrinsic metabolic clearance; format: in vitro ADME; details: human
[4] = molecular target: T1, CYP3A4 (Homo sapiens, UniProt P08684); format: in vitro ADME
[5] = molecular target: T1, CYP3A4; details: cited from earlier work
[6] = test system: UGT1A4; assay: Unbound intrinsic metabolic clearance assigned to UGT1A4; format: in vitro ADME; details: human, human liver microsomes and recombinant enzymes
[7] = Caco-2 apical-to-basolateral apparent permeability; format: in vitro ADME; details: human
[8] = test system: CYP2C8; assay: Unbound intrinsic metabolic clearance assigned to CYP2C8; format: in vitro ADME; details: human, human liver microsomes and recombinant enzymes
[9] = cited from earlier work
[10] = cited from earlier work; remark: listed apart in the source
[11] = olanzapine PBPK input, cited from earlier work
[12] = test system: μ‐opioid receptors; details: in vitro; cited from earlier work
[13] = test system: human κ‐opioid receptor; details: in vitro; cited from earlier work
[14] = test system: non-CYP3A4 enzymes; assay: Unbound intrinsic metabolic clearance; format: in vitro ADME; details: human
[15] = test system: opioid receptor; details: cited from earlier work
[16] = Fraction unbound in microsomal incubation; format: in vitro ADME; details: 0.5 mg/mL microsomal incubation; unpublished data provided by Alkermes
[17] = Physicochemical properties used as PBPK inputs; details: samidorphan, unpublished data provided by Alkermes
[18] = molecular target: CYP2D6 (Homo sapiens, UniProt P10635); assay: CYP2D6 competitive inhibition; format: biochemical
[19] = test system: human δ‐opioid receptor; details: in vitro; cited from earlier work
[20] = Blood-to-plasma partition ratio and fraction unbound in plasma; format: in vitro ADME
[21] = test system: κ‐opioid receptors; details: in vitro; cited from earlier work
[22] = test system: δ‐opioid receptors; details: in vitro; cited from earlier work
[23] = test system: human μ‐opioid receptor; details: in vitro; cited from earlier work
[24] = Renal clearance / renal excretion of unchanged drug; details: human, in vivo
[25] = ± itraconazole 200 mg q.d., observed, sublingual BUP/SAM 2/2

T1 sequence (P08684 whole entry): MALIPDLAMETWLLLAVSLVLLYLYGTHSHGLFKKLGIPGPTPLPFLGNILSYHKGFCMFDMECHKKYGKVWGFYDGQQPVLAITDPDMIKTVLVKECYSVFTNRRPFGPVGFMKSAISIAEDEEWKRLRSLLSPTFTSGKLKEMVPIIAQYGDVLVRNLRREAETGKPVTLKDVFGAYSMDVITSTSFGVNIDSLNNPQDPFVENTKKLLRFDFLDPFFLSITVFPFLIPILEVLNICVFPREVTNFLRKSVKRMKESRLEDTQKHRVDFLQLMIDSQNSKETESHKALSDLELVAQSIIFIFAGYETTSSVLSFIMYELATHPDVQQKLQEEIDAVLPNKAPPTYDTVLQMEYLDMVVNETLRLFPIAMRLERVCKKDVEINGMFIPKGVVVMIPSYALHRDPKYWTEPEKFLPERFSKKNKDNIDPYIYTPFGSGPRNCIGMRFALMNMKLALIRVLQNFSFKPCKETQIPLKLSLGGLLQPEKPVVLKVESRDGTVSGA
Sequence of CYP2D6 (P10635 whole entry): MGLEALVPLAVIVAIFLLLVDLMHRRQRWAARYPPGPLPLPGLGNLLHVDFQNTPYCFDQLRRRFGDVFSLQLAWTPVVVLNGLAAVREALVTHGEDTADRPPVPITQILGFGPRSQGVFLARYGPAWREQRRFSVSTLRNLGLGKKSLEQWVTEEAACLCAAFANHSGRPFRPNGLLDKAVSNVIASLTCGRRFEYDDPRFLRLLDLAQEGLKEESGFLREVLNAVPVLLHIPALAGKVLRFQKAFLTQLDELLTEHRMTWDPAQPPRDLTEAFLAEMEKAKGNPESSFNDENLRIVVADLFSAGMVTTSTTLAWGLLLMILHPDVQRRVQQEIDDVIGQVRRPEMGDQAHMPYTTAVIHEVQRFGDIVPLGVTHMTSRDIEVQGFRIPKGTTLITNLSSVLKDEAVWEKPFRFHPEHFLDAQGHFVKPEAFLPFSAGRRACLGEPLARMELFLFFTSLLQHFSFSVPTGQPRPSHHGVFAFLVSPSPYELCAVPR

## Cc1cc2c(s1)Nc1ccccc1N=C2N1CCN(C)CC1 [Olanzapine, olanzapine]
[1]
  microsomal CLint: 23.7 µL/min/mg
[2]
  microsomal CLint: 4.28 µL/min/mg
[3]
  microsomal CLint: 57.9 µL/min/mg
[4]; human liver microsomes and recombinant enzymes
  microsomal CLint: 4.42 µL/min/mg
[5]
  contribution of CYP3A4 to the overall clearance: < 10%
[6]
  microsomal CLint: 20.6 µL/min/mg
[7]; Caco-2, pH 7.4
  Papp A→B: 17.4 ×10⁻⁶ cm/s
[8]
  microsomal CLint: 4.98 µL/min/mg
[9]; pharmacokinetics study (N = 49)
  AUC lower in smokers than in nonsmokers: 15%
[9]; population pharmacokinetic analysis (N = 523)
  increase in clearance, smokers vs. nonsmokers: 55%
[10]
  administered dose excreted renally as unchanged drug: 7%
[10]; olanzapine, ref Kassahun et al.15
  CLR (renal clearance): 0.81 L/h
[11]; ref Callaghan et al.21
  Compound type: Monoprotic base
[11]; ref El‐Ela et al.29
  log P: 2.89

## NC(=O)c1ccc2c(c1O)[C@]13CCN(CC4CC4)[C@H](C2)[C@]1(O)CCC(=O)C3 [Samidorphan, samidorphan]
[12]
  functional activity (in words): antagonist
[13]
  binding affinity (in words): high affinity
[3]
  microsomal CLint: 11.2 µL/min/mg
[14]
  microsomal CLint: 5.22 µL/min/mg
[15]
  in vivo function (in words): opioid receptor antagonist
[4]
  microsomal CLint: 5.93 µL/min/mg
[16]
  fumic at 0.5 mg/mL: 0.86
[17]; pKa1 (acid)
  pKa: 7.5
[17]; pKa2 (base)
  pKa: 8.2
[17]
  Compound type: Ampholyte
[7]; Caco-2, pH 6.5
  Papp A→B: 18.8 ×10⁻⁶ cm/s
[18]
  Ki: 41.5 µM
[19]
  binding affinity (in words): high affinity
[20]; plasma
  fraction unbound: 0.69
[20]; samidorphan, unpublished data provided by Alkermes
  B:P (blood‐to‐plasma partition ratio): 1
[21]
  functional activity (in words): partial agonist
[22]
  functional activity (in words): partial agonist
[23]
  binding affinity (in words): high affinity
[9]; [25]
  AUC ratio (geometric mean): 1.50
  Cmax ratio (geometric mean): 1.12
[24]
  CL renal: 183 mL/min
